The source made the active and inactive calls.
Legend:
[1] = cytotoxicity toward NIH3T3 fibroblasts, dose response, counter-screen, cell-based, ATP luminescence, mouse fibroblasts (AID 2010); assay type: functional;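 also: cells exposed to compound for about 90 hours before reading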
[2] = growth suppression of PTEN-null colon cells, dose response, cell-based, HCT116 PTEN knockout (AID 1047); assay type: functional;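 also: HCT116 colon tumor cells with PTEN knocked out; cells exposed to compound for 60 hours before readout; potency for loss of cell viability measured by luminescence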
[3] = growth suppression of beta-catenin-knockout colon cells, dose response, cell-based, HCT116, human colon tumor (AID 1045); assay type: functional;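 also: HCT116 colon tumor cells with beta catenin knocked out; cells exposed to compound for 60 hours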
[4] = inhibitors of intracellular T. cruzi replication, confirmation, NIH3T3 host cells, beta-gal luminescence (AID 2044); assay type: functional, cell-based;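 also: intracellular parasites grown in NIH/3T3 mouse fibroblasts as host cells; luminescent beta-galactosidase reporter signal from transgenic T. cruzi replicating inside host cells; inhibitors lower the luminescence signal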
[5] = MDA-MB-231 cell growth inhibition, dose response, cytotoxicity control for RAD54 inhibitor project, CellTiter-Glo luminescence, cherry-pick (AID 651692); assay type: functional, cell-based
[6] = DNA binding of candidate compounds, dose response, artefact control for RAD54 inhibitor project, biochemical, fluorescence polarization, cherry-pick (AID 651673); assay type: functional
[7] = target: T1, DNA repair and recombination protein RAD54-like (Homo sapiens, UniProt Q92698); experiment: inhibitors of human RAD54 branch migration, confirmation, biochemical, fluorescence, cherry-picked samples, dose series (AID 651657); assay type: functional
T1 sequence (Q92698 whole entry): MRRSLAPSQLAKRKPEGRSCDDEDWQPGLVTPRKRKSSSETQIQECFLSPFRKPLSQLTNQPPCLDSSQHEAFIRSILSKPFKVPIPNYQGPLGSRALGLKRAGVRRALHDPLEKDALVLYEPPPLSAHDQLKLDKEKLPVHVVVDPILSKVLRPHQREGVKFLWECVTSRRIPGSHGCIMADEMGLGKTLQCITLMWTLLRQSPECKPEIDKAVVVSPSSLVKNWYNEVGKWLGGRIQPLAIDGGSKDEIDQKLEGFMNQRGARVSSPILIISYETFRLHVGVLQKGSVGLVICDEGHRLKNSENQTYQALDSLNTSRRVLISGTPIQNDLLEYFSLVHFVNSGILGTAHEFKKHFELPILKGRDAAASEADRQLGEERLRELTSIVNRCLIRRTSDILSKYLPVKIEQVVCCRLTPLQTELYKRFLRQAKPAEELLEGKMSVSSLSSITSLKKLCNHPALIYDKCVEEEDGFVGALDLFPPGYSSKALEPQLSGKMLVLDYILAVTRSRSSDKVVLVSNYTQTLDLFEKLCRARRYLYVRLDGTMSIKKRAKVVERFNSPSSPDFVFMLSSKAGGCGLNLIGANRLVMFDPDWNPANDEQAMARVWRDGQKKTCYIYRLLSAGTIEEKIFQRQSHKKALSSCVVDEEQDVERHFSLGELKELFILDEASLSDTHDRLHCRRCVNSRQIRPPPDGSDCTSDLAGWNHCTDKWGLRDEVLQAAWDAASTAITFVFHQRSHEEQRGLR

[8] = target: 5-hydroxytryptamine receptor 2A (Mus musculus, UniProt P35363); assay type: functional, cell-based;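 also: CHO-K1 cells with tagged receptor and beta-arrestin; agonist potency measured as compound-induced activation of the receptor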
Mu-type opioid receptor = Mu-type opioid receptor (Homo sapiens, UniProt P35372); assay type: functional, cell-based;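 also: U2OS cells with beta-arrestin recruitment to OPRM1 by beta-gal complementation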
[9] = target: SWI/SNF-related matrix-associated actin-dependent regulator of chromatin subfamily A member 2 (Homo sapiens, UniProt P51531); experiment: Luminescence-based cell-based high throughput dose response assay to identify activators of the function of SWI/SNF related, matrix associated, actin dependent regulator of chromatin, subfamily a, member 2 (SMARCA2, BRM).; assay type: functional
[10] = Counterscreen for activators of the function of SWI/SNF related, matrix associated, actin dependent regulator of chromatin, subfamily a, member 2 (SMARCA2, BRM): Luminescence-based cell-based high throughput dose response assay to identify non-selective compounds using the VP16 reporter assay.; assay type: functional
[11] = HeLa cell cytotoxicity, dose response, cytotoxicity control for MgcRacGAP inhibitor project (AID 624300); assay type: functional
[12] = target: T2, Rac GTPase-activating protein 1 (Homo sapiens, UniProt Q9H0H5); experiment: MgcRacGAP GTPase-activating activity inhibitors, confirmation, biochemical, ADP Hunter fluorescence, primary and confirmatory (AID 624330); assay type: functional
T2 sequence (Q9H0H5 whole entry): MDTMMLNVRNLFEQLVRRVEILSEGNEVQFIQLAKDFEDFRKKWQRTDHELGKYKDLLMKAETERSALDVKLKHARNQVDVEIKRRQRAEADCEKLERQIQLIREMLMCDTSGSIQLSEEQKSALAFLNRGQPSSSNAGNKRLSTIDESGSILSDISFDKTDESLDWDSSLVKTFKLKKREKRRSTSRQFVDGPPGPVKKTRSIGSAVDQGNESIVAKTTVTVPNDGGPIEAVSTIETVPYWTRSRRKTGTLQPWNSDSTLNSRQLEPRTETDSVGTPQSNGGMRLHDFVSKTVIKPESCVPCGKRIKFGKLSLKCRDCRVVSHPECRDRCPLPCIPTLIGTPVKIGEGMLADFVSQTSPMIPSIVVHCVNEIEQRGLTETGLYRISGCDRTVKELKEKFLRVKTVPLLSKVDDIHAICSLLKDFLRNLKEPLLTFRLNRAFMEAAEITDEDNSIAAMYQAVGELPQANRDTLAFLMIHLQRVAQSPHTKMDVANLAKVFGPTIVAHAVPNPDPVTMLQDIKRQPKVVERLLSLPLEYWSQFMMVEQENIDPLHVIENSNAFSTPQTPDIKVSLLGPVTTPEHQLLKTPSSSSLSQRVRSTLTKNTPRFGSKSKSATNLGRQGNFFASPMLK

[13] = target: T3, Sentrin-specific protease 1 (Homo sapiens, UniProt Q9P0U3); experiment: potency of human SENP1 inhibitors, dose response, biochemical, kinetic FRET (AID 651697); assay type: functional; conditions: read-out: IC50_Mean
[14] = target: T3, Sentrin-specific protease 1; experiment: Dose response confirmation of small molecule inhibitors of the catalytic domain of the SUMO protease, SENP1 in a FRET assay.; assay type: functional; conditions: read-out: IC50_Mean
[15] = target: T4, Voltage-gated N-type calcium channel alpha-1B subunit/Amyloid beta A4 precursor protein-binding family A member 1 (Homo sapiens, UniProt Q00975+Q02410); assay type: protein assay
[16] = target: Tyrosine-protein phosphatase non-receptor type 22 (Homo sapiens, UniProt Q9Y2R2); experiment: PTPN22 phosphatase inhibition, dose response, selectivity assay for STEP inhibitor project, biochemical (AID 624241); assay type: functional
[17] = target: Dual specificity protein phosphatase 3 (Homo sapiens, UniProt P51452); experiment: VHR phosphatase inhibition, dose response, selectivity assay for STEP inhibitor project, biochemical (AID 602374); assay type: functional; conditions: read-out: IC50_Mean
SUMO-activating enzyme [18] = target: T5, SUMO-activating enzyme (Homo sapiens, UniProt Q9UBT2); experiment: SUMOylation inhibitor hit validation, confirmation, SUMOylation inhibitor project, biochemical, AlphaScreen (AID 2018); assay type: functional
[19] = target: T6, Small ubiquitin-related modifier 1 (Homo sapiens, UniProt P63165); experiment: inhibitors of SUMO1 peptide binding, dose response, biochemical, fluorescence polarization, uHTS hits (AID 624382); assay type: functional; conditions: read-out: IC50_Mean
[20] = target: Tyrosine-protein phosphatase non-receptor type 11 (Homo sapiens, UniProt Q06124); experiment: SHP2 phosphatase inhibition, dose response, selectivity assay for STEP inhibitor project, biochemical (AID 602367); assay type: functional; conditions: read-out: IC50_Mean
SUMO-activating enzyme [21] = target: T5, SUMO-activating enzyme; experiment: inhibitors of in vitro SUMOylation cascade, primary screen, biochemical, HTRF, uHTS (AID 2006); assay type: protein-complex assay
[22] = target: Tyrosine-protein phosphatase non-receptor type 5 (Homo sapiens, UniProt P54829); experiment: STEP phosphatase inhibitors, confirmation, biochemical, fluorescence intensity, uHTS hits (AID 602372); assay type: functional; conditions: read-out: IC50_Mean
[23] = target: T6, Small ubiquitin-related modifier 1; experiment: inhibitors of SUMO1 partner interactions, dose response, biochemical, FRET (AID 624383); assay type: functional; conditions: read-out: IC50_Mean
[24] = target: T4, Voltage-gated N-type calcium channel alpha-1B subunit/Amyloid beta A4 precursor protein-binding family A member 1; assay type: protein assay; remark: listed apart in the source
cells [25] = assay type: functional, cell-based
[26] = target: T7, Trace amine-associated receptor 1 (Homo sapiens, UniProt Q96RJ0); experiment: Fluorescence-based cell-based high throughput dose response assay to identify agonists of the human trace amine associated receptor 1 (TAAR1).; assay type: functional
[27] = target: T7, Trace amine-associated receptor 1; experiment: Counterscreen for agonists of the human trace amine associated receptor 1 (hTAAR1): Fluorescence-based cell-based high throughput dose response assay to identify hTAAR1 agonist that also desensitize TAAR1 receptor response.; assay type: functional
cells [28] = assay type: functional, cell-based; remark: listed apart in the source
Beta-lactamase [29] = target: Beta-lactamase (Salmonella choleraesuis (strain SC-B67), UniProt Q5J463)
Beta-lactamase [30] = target: Beta-lactamase (Pseudomonas aeruginosa, UniProt Q79MP6);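 also: biochemical dose-response test of metallo-beta-lactamase enzyme inhibition, read out by epi-absorbance; purified recombinant IMP-1 metallo-beta-lactamase with nitrocefin as substrate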

T3 sequence (Q9P0U3 whole entry, the tested form may be a part): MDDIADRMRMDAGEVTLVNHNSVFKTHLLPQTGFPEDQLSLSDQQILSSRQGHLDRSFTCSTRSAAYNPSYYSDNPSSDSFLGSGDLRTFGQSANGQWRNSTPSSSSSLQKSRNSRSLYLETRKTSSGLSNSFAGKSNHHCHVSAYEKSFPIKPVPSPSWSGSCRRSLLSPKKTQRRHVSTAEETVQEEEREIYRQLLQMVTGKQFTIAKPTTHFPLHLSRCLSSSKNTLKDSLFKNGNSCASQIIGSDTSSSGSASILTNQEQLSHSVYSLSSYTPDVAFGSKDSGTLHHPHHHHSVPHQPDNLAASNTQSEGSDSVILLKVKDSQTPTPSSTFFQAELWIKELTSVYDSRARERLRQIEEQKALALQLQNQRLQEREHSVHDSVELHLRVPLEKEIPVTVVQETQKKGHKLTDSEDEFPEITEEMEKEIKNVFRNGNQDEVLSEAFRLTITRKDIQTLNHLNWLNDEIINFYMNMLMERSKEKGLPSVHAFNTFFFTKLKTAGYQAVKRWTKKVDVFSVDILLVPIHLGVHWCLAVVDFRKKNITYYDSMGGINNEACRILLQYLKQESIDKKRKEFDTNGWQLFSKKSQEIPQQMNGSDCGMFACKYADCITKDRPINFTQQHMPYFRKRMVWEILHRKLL
T7 sequence (Q96RJ0 whole entry): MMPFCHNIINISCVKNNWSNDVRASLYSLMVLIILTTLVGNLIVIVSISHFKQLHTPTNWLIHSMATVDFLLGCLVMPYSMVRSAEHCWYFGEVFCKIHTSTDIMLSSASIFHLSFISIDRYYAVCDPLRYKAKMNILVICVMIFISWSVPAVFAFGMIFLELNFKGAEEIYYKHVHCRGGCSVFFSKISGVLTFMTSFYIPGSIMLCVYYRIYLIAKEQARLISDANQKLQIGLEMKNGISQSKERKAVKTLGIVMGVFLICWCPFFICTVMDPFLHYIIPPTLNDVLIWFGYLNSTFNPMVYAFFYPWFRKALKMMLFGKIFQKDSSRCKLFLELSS
T5 sequence (Q9UBE0 whole entry): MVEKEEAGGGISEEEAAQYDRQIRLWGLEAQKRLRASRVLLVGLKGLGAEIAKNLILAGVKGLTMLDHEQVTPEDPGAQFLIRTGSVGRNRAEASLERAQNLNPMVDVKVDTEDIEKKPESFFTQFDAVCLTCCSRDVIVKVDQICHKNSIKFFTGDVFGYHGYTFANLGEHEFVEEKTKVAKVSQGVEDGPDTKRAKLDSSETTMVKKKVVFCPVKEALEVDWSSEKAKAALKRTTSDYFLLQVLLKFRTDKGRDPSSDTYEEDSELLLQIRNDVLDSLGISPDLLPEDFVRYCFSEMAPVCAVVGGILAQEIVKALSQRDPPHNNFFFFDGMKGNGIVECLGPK
T5 sequence (Q9UBT2 whole entry): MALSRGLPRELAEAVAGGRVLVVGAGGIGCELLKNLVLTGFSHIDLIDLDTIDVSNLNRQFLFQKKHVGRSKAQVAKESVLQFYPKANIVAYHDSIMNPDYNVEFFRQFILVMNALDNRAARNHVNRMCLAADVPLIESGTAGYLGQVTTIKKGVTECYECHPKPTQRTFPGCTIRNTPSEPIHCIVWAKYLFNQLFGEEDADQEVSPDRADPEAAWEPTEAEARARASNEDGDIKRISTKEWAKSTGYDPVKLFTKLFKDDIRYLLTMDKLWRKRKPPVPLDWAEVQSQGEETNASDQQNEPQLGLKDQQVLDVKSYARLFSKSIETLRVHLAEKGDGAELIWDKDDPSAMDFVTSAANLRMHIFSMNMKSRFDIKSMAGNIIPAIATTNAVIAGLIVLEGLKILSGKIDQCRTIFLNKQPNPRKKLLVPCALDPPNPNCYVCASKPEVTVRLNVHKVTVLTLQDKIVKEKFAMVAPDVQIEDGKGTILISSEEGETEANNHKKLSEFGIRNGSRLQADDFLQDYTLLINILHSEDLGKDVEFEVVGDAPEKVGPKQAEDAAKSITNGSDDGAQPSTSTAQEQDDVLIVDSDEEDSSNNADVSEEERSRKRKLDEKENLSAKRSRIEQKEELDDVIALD
T6 sequence (P63165 whole entry): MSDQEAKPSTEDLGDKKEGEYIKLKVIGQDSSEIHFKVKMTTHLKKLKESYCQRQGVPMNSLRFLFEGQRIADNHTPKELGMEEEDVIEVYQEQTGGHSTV
Chain of SWI/SNF-related matrix-associated actin-dependent regulator of chromatin subfamily A member 2 (P51531 whole entry): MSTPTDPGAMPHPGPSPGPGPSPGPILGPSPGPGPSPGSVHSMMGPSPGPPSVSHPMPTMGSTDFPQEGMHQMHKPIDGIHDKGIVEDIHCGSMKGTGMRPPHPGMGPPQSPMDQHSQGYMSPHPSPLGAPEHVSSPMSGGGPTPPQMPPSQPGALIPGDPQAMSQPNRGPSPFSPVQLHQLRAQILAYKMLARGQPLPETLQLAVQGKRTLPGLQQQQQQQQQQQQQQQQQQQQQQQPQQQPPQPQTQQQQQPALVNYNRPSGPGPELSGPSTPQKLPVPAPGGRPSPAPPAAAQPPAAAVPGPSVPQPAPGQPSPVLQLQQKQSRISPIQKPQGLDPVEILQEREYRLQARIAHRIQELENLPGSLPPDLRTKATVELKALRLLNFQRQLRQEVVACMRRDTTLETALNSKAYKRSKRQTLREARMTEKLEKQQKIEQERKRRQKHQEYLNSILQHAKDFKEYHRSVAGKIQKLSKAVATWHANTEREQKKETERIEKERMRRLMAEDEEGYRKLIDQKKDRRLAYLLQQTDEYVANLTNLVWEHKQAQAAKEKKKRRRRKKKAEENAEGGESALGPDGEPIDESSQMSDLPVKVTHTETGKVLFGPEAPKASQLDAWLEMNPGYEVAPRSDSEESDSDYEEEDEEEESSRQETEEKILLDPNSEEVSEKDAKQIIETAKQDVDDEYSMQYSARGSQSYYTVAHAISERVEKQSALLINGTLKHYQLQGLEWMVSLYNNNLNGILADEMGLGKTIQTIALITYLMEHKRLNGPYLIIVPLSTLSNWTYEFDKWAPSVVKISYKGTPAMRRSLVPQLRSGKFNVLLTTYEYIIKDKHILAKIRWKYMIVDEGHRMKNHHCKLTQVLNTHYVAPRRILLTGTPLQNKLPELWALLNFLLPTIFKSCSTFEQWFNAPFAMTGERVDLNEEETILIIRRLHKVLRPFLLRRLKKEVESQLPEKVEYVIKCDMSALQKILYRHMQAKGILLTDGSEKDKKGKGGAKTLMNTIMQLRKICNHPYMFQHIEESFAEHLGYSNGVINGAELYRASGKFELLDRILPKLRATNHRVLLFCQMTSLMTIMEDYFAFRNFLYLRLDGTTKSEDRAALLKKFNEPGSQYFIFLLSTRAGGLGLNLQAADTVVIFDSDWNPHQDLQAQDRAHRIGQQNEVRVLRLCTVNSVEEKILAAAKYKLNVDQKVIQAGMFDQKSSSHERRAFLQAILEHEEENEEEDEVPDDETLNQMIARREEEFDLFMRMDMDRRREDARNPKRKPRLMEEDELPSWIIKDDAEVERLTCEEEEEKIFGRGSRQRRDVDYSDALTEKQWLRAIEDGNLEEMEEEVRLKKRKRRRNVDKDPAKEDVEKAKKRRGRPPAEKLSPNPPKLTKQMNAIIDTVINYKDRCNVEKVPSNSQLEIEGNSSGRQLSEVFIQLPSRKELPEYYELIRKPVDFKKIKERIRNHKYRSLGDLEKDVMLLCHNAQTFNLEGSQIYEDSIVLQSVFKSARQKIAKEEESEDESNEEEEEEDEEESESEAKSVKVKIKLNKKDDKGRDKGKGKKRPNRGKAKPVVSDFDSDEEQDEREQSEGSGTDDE
Chain of Beta-lactamase (Salmonella choleraesuis (strain SC-B67), UniProt Q5J463) (Q5J463 whole entry): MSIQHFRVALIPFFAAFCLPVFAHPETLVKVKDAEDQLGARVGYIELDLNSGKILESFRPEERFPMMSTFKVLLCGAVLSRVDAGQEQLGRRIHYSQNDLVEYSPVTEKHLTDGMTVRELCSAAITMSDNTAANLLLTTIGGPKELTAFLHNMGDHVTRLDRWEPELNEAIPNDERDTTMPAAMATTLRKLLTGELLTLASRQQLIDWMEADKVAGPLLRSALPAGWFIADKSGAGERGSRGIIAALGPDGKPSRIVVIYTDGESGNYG
Chain of Tyrosine-protein phosphatase non-receptor type 22 (Q9Y2R2 whole entry): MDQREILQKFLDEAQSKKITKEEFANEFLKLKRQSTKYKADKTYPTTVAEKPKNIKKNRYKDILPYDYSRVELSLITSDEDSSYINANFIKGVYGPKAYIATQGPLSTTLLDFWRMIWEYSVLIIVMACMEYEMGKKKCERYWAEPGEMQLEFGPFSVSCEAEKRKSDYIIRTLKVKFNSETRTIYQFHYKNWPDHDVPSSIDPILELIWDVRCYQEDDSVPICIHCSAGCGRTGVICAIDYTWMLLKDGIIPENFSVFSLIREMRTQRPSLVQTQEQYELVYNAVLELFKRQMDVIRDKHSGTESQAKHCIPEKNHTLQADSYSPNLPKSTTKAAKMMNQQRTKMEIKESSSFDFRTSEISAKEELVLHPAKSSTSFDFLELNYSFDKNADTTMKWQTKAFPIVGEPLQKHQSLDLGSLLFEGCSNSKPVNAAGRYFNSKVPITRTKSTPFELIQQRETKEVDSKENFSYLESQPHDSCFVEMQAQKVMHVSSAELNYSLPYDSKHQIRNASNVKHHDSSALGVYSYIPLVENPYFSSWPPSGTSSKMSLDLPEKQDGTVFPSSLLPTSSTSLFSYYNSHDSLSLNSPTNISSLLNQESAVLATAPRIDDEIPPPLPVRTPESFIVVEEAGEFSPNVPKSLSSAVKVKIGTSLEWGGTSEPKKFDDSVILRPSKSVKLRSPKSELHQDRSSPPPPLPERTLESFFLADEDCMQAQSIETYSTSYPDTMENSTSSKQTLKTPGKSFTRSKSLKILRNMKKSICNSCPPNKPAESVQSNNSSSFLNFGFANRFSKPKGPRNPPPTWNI
Chain of Dual specificity protein phosphatase 3 (P51452 whole entry): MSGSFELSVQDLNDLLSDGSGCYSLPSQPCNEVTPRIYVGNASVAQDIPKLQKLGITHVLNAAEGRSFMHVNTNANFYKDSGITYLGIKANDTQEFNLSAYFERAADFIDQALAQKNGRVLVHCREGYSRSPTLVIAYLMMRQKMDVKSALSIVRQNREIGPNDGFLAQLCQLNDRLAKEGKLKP

Compound: COc1ccc(Nc2nc(N3CCCC3)nc3ccccc23)c(OC)c1
- EC50 [1]: 22.2 µM (active)
- EC50 [2]: 1.97 µM (active)
- EC50 [3]: 1.2 µM (active)
- EC50 [4]: 0.627 µM (active)
- AC50 [5]: 35.6 µM (active)
- AC50 [6]: 63.3 µM (active)
- AC50 [7]: 6.47 µM (active)

Compound: COc1ccc(CN2CCN(c3ncccn3)CC2)c(C)c1C
- EC50 [8]: 0.263 µM (active)
- EC50 (Mu-type opioid receptor): 92.5 µM (inactive)

Compound: CC(=O)c1ccc(OCCCC(=O)OCc2nnc(-c3ccc(Cl)cc3)o2)cc1
- EC50 [9]: > 91.1 µM (inactive)
- EC50 [10]: > 91.1 µM (inactive)

Compound: Cn1c(-c2ccc3c(c2)OCO3)cnc1NCc1ccccc1Cl
- CC50 [11]: 100 µM (active)
- IC50 [12]: 72 µM (active)

Compound: O=C1C=C(Nc2ccc(Cl)cc2)C(=O)N1c1ccc(Cl)cc1
- IC50 [13]: 21 µM (inactive)
- IC50 [14]: 12.5 µM (active)

Compound: CCCc1cc(=O)oc2cc(OCC(=O)Nc3ccc(S(N)(=O)=O)cc3)ccc12
- IC50 [15]: 14.2 µM (active)
- IC50 [16]: 31 µM (inactive)
- IC50 [17]: 5.69 µM (active)
- IC50 (SUMO-activating enzyme [18]): 6.11 µM (active)
- IC50 [19]: > 66.6 µM (inactive)
- IC50 [20]: 1.15 µM (active)
- IC50 (SUMO-activating enzyme [21]): 11.5 µM (active)
- IC50 [22]: 15.5 µM (active)
- IC50 [23]: 6.44 µM (active)
- IC50 [24]: > 50 µM (inactive)

Compound: O=C(O)C1CCCCC1C(=O)NCCc1cccc(Cl)c1 (stereo unspecified)
- IC50 (cells [25]): > 29.9 µM (inactive)
- EC50 [26]: 2.5 µM (active)
- IC50 [27]: > 29.9 µM (inactive)
- EC50 (cells [28]): > 29.9 µM (inactive)

Compound: CC(C)C(CCN1C(=O)c2ccccc2C1=O)c1ccco1 (stereo unspecified)
- IC50 (Beta-lactamase [29]): > 59.6 µM (inactive)
- IC50 (Beta-lactamase [30]): 36.8 µM (inactive)

Reference: ChEMBL document CHEMBL1201862, “PubChem BioAssay data set” (2004)
